These results are taken from patent US20220046923A1, “HERBICIDAL CINNOLINIUM COMPOUNDS” (SYNGENTA CROP PROTECTION AG, priority 2018, published 2022).

Assay in all cases: Post-emergence efficacy, glasshouse spray test
Holding throughout (assay type): in vivo

Experiment [1] concerns Digitaria sanguinalis (DIGSA). To be noted: Digitaria sanguinalis, post-emergence, 312 h, evaluated after 13 days, read-out: Control of weed species DIGSA after post-emergence application (100=total damage to plant; 0=no damage to plant); for pest or weed control at 1000 g/ha: application rate 1000 g/Ha; for pest or weed control at 500 g/ha: application rate 500 g/Ha. As to the method:
(§1) Seeds of a variety of test species were sown in standard soil in pots. After cultivation for 14 days (post-emergence) under controlled conditions in a glasshouse (at 24/16° C., day/night; 14 hours light; 65% humidity), the plants were sprayed with an aqueous spray solution derived from the dissolution of the technical active ingredient formula (I) in a small amount of acetone and a special solvent and emulsifier mixture referred to as IF50 (11.12% Emulsogen EL360 TM+44.44% N-methylpyrrolidone+44.44% Dowanol DPM glycol ether), to create a 50 g/l solution which was then diluted to required concentration using 0.25% or 1% Empicol ESC70 (Sodium lauryl ether sulphate)+1% ammonium sulphate as diluent. The test plants were then grown in a glasshouse under controlled conditions (at 24/16° C., day/night; 14 hours light; 65% humidity) and watered twice daily. After 13 days the test was evaluated (100=total damage to plant; 0=no damage to plant).
(§2) Ipomoea hederacea (IPOHE), Euphorbia heterophylla (EPHHL), Chenopodium album (CHEAL), Amaranthus palmeri (AMAPA), Lolium perenne (LOLPE), Digitaria sanguinalis (DIGSA), Eleusine indica (ELEIN), Echinochloa crus-galli (ECHCG), Setaria faberi (SETFA)

Experiment [2] concerns Ipomoea hederacea (IPOHE). To be noted: Ipomoea hederacea, post-emergence, 312 h, evaluated after 13 days, read-out: Control of weed species IPOHE after post-emergence application (100=total damage to plant; 0=no damage to plant); for pest or weed control at 1000 g/ha: application rate 1000 g/Ha; for pest or weed control at 500 g/ha: application rate 500 g/Ha. The procedure:
as §1, §2

Experiment [3] relates to Echinochloa crus-galli (ECHCG). To be noted: Echinochloa crus-galli, post-emergence, 312 h, evaluated after 13 days, read-out: Control of weed species ECHCG after post-emergence application (100=total damage to plant; 0=no damage to plant); for pest or weed control at 1000 g/ha: application rate 1000 g/Ha; for pest or weed control at 500 g/ha: application rate 500 g/Ha. The procedure:
as §1, §2

For experiment [4], the system named is Eleusine indica (ELEIN). The settings on record: Eleusine indica, post-emergence, 312 h, evaluated after 13 days, read-out: Control of weed species ELEIN after post-emergence application (100=total damage to plant; 0=no damage to plant); for pest or weed control at 1000 g/ha: application rate 1000 g/Ha; for pest or weed control at 500 g/ha: application rate 500 g/Ha. As to the method:
as §1, §2

For experiment [5], the system named is Chenopodium album (CHEAL). To be noted: Chenopodium album, post-emergence, 312 h, evaluated after 13 days, read-out: Control of weed species CHEAL after post-emergence application (100=total damage to plant; 0=no damage to plant); for pest or weed control at 1000 g/ha: application rate 1000 g/Ha; for pest or weed control at 500 g/ha: application rate 500 g/Ha. The procedure:
as §1, §2

Experiment [6] concerns Setaria faberi (SETFA). To be noted: Setaria faberi, post-emergence, 312 h, evaluated after 13 days, read-out: Control of weed species SETFA after post-emergence application (100=total damage to plant; 0=no damage to plant); for pest or weed control at 1000 g/ha: application rate 1000 g/Ha; for pest or weed control at 500 g/ha: application rate 500 g/Ha. The procedure: as §1, §2

The test system of experiment [7] is Amaranthus palmeri (AMAPA). To be noted: Amaranthus palmeri, post-emergence, 312 h, evaluated after 13 days, read-out: Control of weed species AMAPA after post-emergence application (100=total damage to plant; 0=no damage to plant); for pest or weed control at 1000 g/ha: application rate 1000 g/Ha; for pest or weed control at 500 g/ha: application rate 500 g/Ha. The procedure: as §1, §2

In experiment [8] the test system is Lolium perenne (LOLPE). The settings on record: Lolium perenne, post-emergence, 312 h, evaluated after 13 days, read-out: Control of weed species LOLPE after post-emergence application (100=total damage to plant; 0=no damage to plant); for pest or weed control at 1000 g/ha: application rate 1000 g/Ha; for pest or weed control at 500 g/ha: application rate 500 g/Ha. The procedure:
as §1, §2

Experiment [9] concerns Euphorbia heterophylla (EPHHL). To be noted: Euphorbia heterophylla, post-emergence, 312 h, evaluated after 13 days, read-out: Control of weed species EPHHL after post-emergence application (100=total damage to plant; 0=no damage to plant); for pest or weed control at 1000 g/ha: application rate 1000 g/Ha; for pest or weed control at 500 g/ha: application rate 500 g/Ha. As to the method: as §1, §2

The structures appear in SMILES notation.

Take `O=S(=O)([O-])OCCC[n+]1ccc2ccccc2n1` [Compound A27]: the pest or weed control at 1000 g/ha in experiment [1] amounted to 70%; in experiment [2] it was 50%; in [3], 50%; in experiment [4] it was 80%; in [5] it was 90%; in [6] it was 70%. In addition, the pest or weed control at 1000 g/ha in experiment [7] amounted to 100%; in experiment [8], 40%; in [9], 60%.
Turning to `Cc1cc(C)c2n[n+](CC(=O)[O-])cc(C)c2c1` [Compound A4], the pest or weed control at 1000 g/ha was 10% in [1]; 30% in [2]; 10% in experiment [3]; 20% in experiment [4]; 10% in experiment [5]; 0% in [6]. For the same compound, the pest or weed control at 1000 g/ha in experiment [7] is 40%; in experiment [8], 10%; in experiment [9], 40%.
As to `N[C@@H](C[n+]1ccc2ccccc2n1)C(=O)[O-]` [Compound A23, (2S)-2-amino-3-cinnolin-2-ium-2-yl-propanoic Acid 2,2,2-trifluoroacetate], the pest or weed control at 1000 g/ha worked out at 40% in [1]; 20% in [2]; 30% in [3]; 20% in experiment [4]; 30% in experiment [5]; 40% in experiment [6]. Also, the pest or weed control at 1000 g/ha is 60% in experiment [7], 10% in [8] and 30% in experiment [9].
For the compound `O=S(=O)([O-])CC[n+]1ccc2ccc(C(F)(F)F)cc2n1` [Compound A80], the pest or weed control at 1000 g/ha came out at 20% in [1]; 0% in experiment [2]; 20% in [3]; 30% in [4]; 20% in experiment [5]; 30% in experiment [6]. The pest or weed control at 1000 g/ha is 0% in [7], 10% in experiment [8] and 20% in experiment [9].
In the case of `c1ccc2n[n+](Cc3nnn[n-]3)ccc2c1` [Compound A20], the pest or weed control at 1000 g/ha in experiment [1] amounted to 20%; in experiment [2] it was 0%; in experiment [3] it was 20%; in experiment [4] it was 20%; in [5], 10%; in experiment [6], 10%. Besides, the pest or weed control at 1000 g/ha in [7] was determined as 30%; in [8], 10%; in experiment [9] it was 70%.
As to `Cc1cc2ccccc2n[n+]1CCOS(=O)(=O)[O-]` [Compound A75], the pest or weed control at 1000 g/ha in experiment [1] came out at 70%; in experiment [2], 30%; in [3], 30%; in experiment [4], 80%; in [5], 90%; in experiment [6], 30%. In addition, the pest or weed control at 1000 g/ha in experiment [7] amounted to 100%; in experiment [8] it was 20%; in experiment [9], 40%.
Take `O=S(=O)([O-])CC[n+]1ccc2cc(C(F)(F)F)ccc2n1` [Compound A98]: the pest or weed control at 500 g/ha in experiment [1] came out at 10%; in [2] it was 0%; in experiment [3] it was 10%; in [4], 20%; in [5], 30%; in [6], 0%. Also, the pest or weed control at 500 g/ha was 0% in [7], 10% in experiment [8] and 40% in experiment [9].
`COC(=O)C[n+]1ccc2cc(OC)ccc2n1` [Compound A60]: the pest or weed control at 1000 g/ha in experiment [1] amounted to 30%; in [2] it was 30%; in experiment [3], 20%; in experiment [4] it was 40%; in experiment [5], 0%; in experiment [6], 10%. Besides, the pest or weed control at 1000 g/ha stood at 0% in experiment [7], 10% in [8] and 10% in [9].
In the case of `O=S(=O)([O-])CC[n+]1ccc2ccc(F)cc2n1` [Compound A83], the pest or weed control at 1000 g/ha was 50% in [1]; 60% in experiment [2]; 40% in [3]; 80% in experiment [4]; 100% in experiment [5]; 50% in experiment [6]. Further, the pest or weed control at 1000 g/ha turned out to be 100% in [7], 50% in experiment [8] and 100% in experiment [9].
Take `O=S(=O)([O-])CC[n+]1ccc2cccc(Cl)c2n1` [Compound A22]: the pest or weed control at 1000 g/ha was found to be 50% in experiment [1]; 20% in experiment [2]; 40% in experiment [3]; 70% in experiment [4]; 70% in experiment [5]; 30% in experiment [6]. The pest or weed control at 1000 g/ha in [7] turned out to be 70%; in experiment [8], 20%; in experiment [9] it was 70%.
Turning to `CC(C(=O)OC(C)(C)C)[n+]1ccc2ccccc2n1` (stereo not drawn) [Compound A116], the pest or weed control at 500 g/ha in experiment [1] is 40%; in experiment [2], 10%; in experiment [3] it was 30%; in experiment [4] it was 30%; in [5] it was 50%; in experiment [6], 30%. The pest or weed control at 500 g/ha in [7] stood at 60%; in experiment [8], 20%; in experiment [9], 30%.
